Paper PMC4928094, “The first characterization of multidrug and toxin extrusion (MATE/SLC47) proteins in zebrafish (Danio rerio)” (Scientific Reports, 2016)
Where two headings read alike, the source gives them in different places.

How the values were obtained:
[1] = system: rat Mate1; details: rat Mate1 ref 3; cited from earlier work
[2] = molecular target: zebrafish Mate8 (Danio rerio, UniProt A0A8M6YZ09); test: DAPI inhibition assay, Mate8; assay type: cell-based; details: for interaction strength: Mate8, class by IC50 of DAPI uptake inhibition
Method: (§1) HEK293T cells were transiently transfected as described previously[31] using the PEI (polyethyleneimine) reagent in 48-well plates. Cells were in parallel transfected with pcDNA3.1/His/LacZ plasmid and transfection efficiency was evaluated 24 h after transfection with the LacZ staining protocol.
(§2) HEK293T cells overexpressing respective single zebrafish Mate transporter were used for further experiments. […] DAPI fluorescence was measured at 360 and 460 nm […], respectively. The uptake into vector-transfected HEK293T cells (mock cells) was subtracted to obtain transporter-specific uptake.
(§3) Inhibition assays using DAPI as a fluorescent substrate were performed in the same transport medium. […] Compounds tested for interaction were checked using at least four concentrations but only a representative concentration (with the highest response or the largest concentration in solubility range) is shown.
(§4) For the purpose of IC50 calculations, data were fitted to the sigmoidal four-parameter dose-response model (variable slope),

[3] = molecular target: zebrafish Mate7 (Danio rerio, UniProt U3PTD6); test: DAPI inhibition assay, Mate7; assay type: cell-based; details: for interaction strength: Mate7, class by IC50 of DAPI uptake inhibition
Method: as §1, §2, §3, §4

[4] = molecular target: zebrafish Mate6 (Danio rerio, UniProt A1L2E7); test: DAPI inhibition assay, Mate6; assay type: cell-based
Method: as §1, §2, §3, §4

[5] = molecular target: zebrafish Mate4 (Danio rerio, UniProt U3Q0C3); test: DAPI inhibition assay, Mate4; assay type: cell-based
Method: as §1, §2, §3, §4

[6] = system: human MATE2; details: human MATE2 ref 40; cited from earlier work
[7] = system: human MATE1; details: human MATE1 ref 40; cited from earlier work

Chain of zebrafish Mate7 (U3PTD6 entry or part of it): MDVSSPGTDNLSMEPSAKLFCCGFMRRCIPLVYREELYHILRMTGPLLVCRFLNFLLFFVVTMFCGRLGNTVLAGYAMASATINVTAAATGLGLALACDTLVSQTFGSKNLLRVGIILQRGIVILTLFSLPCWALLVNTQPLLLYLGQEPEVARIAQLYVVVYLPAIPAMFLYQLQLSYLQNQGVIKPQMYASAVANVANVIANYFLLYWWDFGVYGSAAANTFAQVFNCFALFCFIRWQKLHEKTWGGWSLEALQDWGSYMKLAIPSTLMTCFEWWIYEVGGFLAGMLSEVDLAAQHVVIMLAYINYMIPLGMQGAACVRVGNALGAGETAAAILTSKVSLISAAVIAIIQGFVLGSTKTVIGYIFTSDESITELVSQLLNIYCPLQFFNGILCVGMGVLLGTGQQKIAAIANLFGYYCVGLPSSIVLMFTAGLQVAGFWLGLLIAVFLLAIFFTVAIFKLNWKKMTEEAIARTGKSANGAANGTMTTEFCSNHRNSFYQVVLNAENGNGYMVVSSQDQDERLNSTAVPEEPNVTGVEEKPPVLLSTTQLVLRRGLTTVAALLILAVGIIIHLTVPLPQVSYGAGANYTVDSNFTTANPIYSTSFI
Chain of zebrafish Mate8 (A0A8M6YZ09 entry or part of it): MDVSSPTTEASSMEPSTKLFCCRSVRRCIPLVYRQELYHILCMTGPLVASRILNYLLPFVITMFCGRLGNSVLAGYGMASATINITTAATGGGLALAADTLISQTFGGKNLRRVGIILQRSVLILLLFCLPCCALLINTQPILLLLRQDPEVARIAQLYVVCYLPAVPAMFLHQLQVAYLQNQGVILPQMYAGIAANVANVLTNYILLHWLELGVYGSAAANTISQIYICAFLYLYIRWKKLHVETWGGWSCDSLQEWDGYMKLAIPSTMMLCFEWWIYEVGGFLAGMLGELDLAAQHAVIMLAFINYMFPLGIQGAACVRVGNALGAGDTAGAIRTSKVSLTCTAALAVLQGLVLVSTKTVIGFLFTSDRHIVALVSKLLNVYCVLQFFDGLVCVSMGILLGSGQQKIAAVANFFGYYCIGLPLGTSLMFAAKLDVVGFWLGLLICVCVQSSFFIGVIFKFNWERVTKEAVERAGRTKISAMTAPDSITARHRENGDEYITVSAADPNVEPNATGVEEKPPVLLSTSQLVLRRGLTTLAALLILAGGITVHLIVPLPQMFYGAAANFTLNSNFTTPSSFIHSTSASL
Chain of zebrafish Mate4 (U3Q0C3 entry or part of it): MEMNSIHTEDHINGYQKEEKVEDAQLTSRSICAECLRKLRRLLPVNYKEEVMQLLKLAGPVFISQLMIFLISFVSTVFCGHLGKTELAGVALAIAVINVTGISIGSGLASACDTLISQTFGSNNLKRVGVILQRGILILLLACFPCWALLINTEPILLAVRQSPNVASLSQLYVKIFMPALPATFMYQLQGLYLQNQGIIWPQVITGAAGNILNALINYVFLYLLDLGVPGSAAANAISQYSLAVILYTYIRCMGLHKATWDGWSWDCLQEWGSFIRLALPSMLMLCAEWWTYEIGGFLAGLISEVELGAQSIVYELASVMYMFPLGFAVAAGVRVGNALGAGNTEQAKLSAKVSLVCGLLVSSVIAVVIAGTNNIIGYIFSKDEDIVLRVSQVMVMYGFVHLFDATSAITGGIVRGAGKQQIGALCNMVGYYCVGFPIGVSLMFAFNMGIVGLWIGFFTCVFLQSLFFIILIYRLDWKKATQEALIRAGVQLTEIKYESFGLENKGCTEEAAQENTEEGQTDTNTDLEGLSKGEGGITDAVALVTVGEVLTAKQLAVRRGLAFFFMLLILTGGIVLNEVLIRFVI
Chain of zebrafish Mate6 (A1L2E7 entry or part of it): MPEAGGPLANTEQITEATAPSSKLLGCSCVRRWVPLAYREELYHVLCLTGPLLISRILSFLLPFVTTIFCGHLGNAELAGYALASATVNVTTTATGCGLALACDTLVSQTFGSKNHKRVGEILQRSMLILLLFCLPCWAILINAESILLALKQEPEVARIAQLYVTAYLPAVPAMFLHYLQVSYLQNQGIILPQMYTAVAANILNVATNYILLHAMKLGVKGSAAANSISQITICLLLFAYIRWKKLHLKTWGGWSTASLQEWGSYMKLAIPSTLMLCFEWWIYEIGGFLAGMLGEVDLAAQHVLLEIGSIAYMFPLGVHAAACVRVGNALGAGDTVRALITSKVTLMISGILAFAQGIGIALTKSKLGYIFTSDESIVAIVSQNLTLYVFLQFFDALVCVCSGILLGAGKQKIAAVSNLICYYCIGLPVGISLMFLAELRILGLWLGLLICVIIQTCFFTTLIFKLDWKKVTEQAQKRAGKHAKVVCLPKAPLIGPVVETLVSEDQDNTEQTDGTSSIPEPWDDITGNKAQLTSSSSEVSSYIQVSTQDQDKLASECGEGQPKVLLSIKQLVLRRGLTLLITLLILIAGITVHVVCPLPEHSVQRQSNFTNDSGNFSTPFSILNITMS

Row | SMILES | Km [1] [µM] | IC50 [2] [µM] | interaction strength [2] | IC50 [3] [µM] | interaction strength [3] | IC50 [4] [µM] | IC50 [5] [µM] | Km [6] [µM] | IC50 ([2]; read-out: IC50) [µM] | IC50 ([3]; read-out: IC50) [µM] | IC50 ([4]; read-out: IC50) [µM] | IC50 ([5]; read-out: IC50) [µM] | Km [7] [µM]
1 | CN/C(=N/CCSCc1nc[nH]c1C)NC#N [Cimetidine, cimetidine, reference compound] | 3 | 4.5 | strong (Compounds with IC50 of 1–29 μM were designated as strong interactors) | 573 | weak (IC50 of 100–999 μM was classified as weak interaction) | 357 | 134 | – | – | – | – | – | –
2 | Cc1ncc(C[n+]2csc(CCO)c2C)c(N)n1 [Thiamine, thiamine] | – | – | very weak (substances with IC50 above 1000 μM were considered very weak interactors) | – | weak (IC50 of 100–999 μM was classified as weak interaction) | – | – | 3.9 | 1900 | 935 | 724 | 805 | 3.5
